In patent US5393743A, “Erythromycin derivatives” (Abbott Laboratories, priority 1993, dated 1995):
Values after ≈ are worked out from the molar mass of the structure shown. Like-named read-outs stand apart in the source and are kept apart here.

Columns and labels:
[1] = tested on: Pseudomonas aeruginosa K799/61; assay: In vitro antibacterial activity, agar dilution MIC; format: cell-based; details: BHI agar, 35°-37° C., 20 to 24 hours, read-out: MIC
[2] = tested on: Escherichia coli SS; assay: microbe, parasite or virus in culture; details: Escherichia coli
Protocol: (§1) Representative compounds of the present invention were assayed in vitro for antibacterial activity as follows: Twelve petri dishes containing successive aqueous dilutions of the test compound mixed with 10 mL of sterilized Brain Heart Infusion (BHI) agar (Difco 0418-01-5) were prepared. Each plate was inoculated with 1:100 (or 1:10 for slow-growing strains, such as Micrococcus and Streptococcus) dilutions of up to 32 different microorganisms, using a Steers replicator block. The inoculated plates were incubated 35°-37° C. for 20 to 24 hours. In addition, a control plate, using BHI agar containing no test compound, was prepared and incubated at the beginning and end of each test.
(§2) An additional plate containing a compound having known susceptibility patterns for the organisms being tested and belonging to the same antibiotic class as the test compound was also prepared and incubated as a further control, as well as to provide test-to-test comparability. Erythromycin A was used for this purpose.
(§3) After incubation, each disk was read. The minimum inhibitory concentration (MIC) was defined as the lowest concentration of drug yielding no growth, a slight haze, or sparsely isolated colonies on the inoculum spot as compared to the growth control.

[3] = tested on: Micrococcus luteus ATCC 9341; assay: microbe, parasite or virus in culture; details: Micrococcus luteus, ATCC9341
Protocol: as §1, §2, §3

[4] = tested on: Providencia stuartii CMX 640; assay: In vitro antibacterial activity, agar dilution MIC; format: cell-based; details: CMX640
Protocol: as §1, §2, §3

[5] = tested on: Streptococcus bovis A5169; assay: In vitro antibacterial activity, agar dilution MIC; format: cell-based; details: Streptococcus equinus, A5169
Protocol: as §1, §2, §3

[6] = tested on: Acinetobacter calcoaceticus CMX 669; assay: In vitro antibacterial activity, agar dilution MIC; format: cell-based; details: Acinetobacter calcoaceticus, CMX669
Protocol: as §1, §2, §3

[7] = tested on: Klebsiella pneumoniae ATCC 8045; assay: In vitro antibacterial activity, agar dilution MIC; format: cell-based; details: ATCC8045
Protocol: as §1, §2, §3

[8] = tested on: Streptococcus pyogenes EES61; assay: In vitro antibacterial activity, agar dilution MIC; format: cell-based
Protocol: as §1, §2, §3

[9] = tested on: Escherichia coli KNK 437; assay: In vitro antibacterial activity, agar dilution MIC; format: cell-based; details: KNK437
Protocol: as §1, §2, §3

[10] = tested on: Streptococcus agalactiae 508; assay: In vitro antibacterial activity, agar dilution MIC; format: cell-based
Protocol: as §1, §2, §3

[11] = tested on: Streptococcus pyogenes 930 const; assay: In vitro antibacterial activity, agar dilution MIC; format: cell-based
Protocol: as §1, §2, §3

[12] = tested on: Pseudomonas aeruginosa K799/WT; assay: In vitro antibacterial activity, agar dilution MIC; format: cell-based
Protocol: as §1, §2, §3

[13] = tested on: Staphylococcus aureus CMX 553; assay: In vitro antibacterial activity, agar dilution MIC; format: cell-based; details: CMX553
Protocol: as §1, §2, §3

[14] = tested on: Staphylococcus aureus A5278; assay: In vitro antibacterial activity, agar dilution MIC; format: cell-based; details: Staphylococcus aureus, A5278
Protocol: as §1, §2, §3

[15] = tested on: Pseudomonas aeruginosa 5263; assay: In vitro antibacterial activity, agar dilution MIC; format: cell-based
Protocol: as §1, §2, §3

[16] = tested on: Enterococcus faecium ATCC 8043; assay: In vitro antibacterial activity, agar dilution MIC; format: cell-based; details: ATCC8043
Protocol: as §1, §2, §3

[17] = tested on: Staphylococcus epidermidis 3519; assay: In vitro antibacterial activity, agar dilution MIC; format: cell-based
Protocol: as §1, §2, §3

[18] = tested on: Escherichia coli DC-2; assay: In vitro antibacterial activity, agar dilution MIC; format: cell-based; details: DC2
Protocol: as §1, §2, §3

[19] = tested on: Micrococcus luteus 4698; assay: In vitro antibacterial activity, agar dilution MIC; format: cell-based
Protocol: as §1, §2, §3

[20] = tested on: Pseudomonas cepacia 2961; assay: In vitro antibacterial activity, agar dilution MIC; format: cell-based; details: Burkholderia cepacia
Protocol: as §1, §2, §3

[21] = tested on: Pseudomonas aeruginosa 2862; assay: In vitro antibacterial activity, agar dilution MIC; format: cell-based
Protocol: as §1, §2, §3

[22] = tested on: Staphylococcus aureus CMX 642a; assay: In vitro antibacterial activity, agar dilution MIC; format: cell-based; details: CMX642A
Protocol: as §1, §2, §3

[23] = tested on: Escherichia coli Juhl; assay: In vitro antibacterial activity, agar dilution MIC; format: cell-based
Protocol: as §1, §2, §3

[24] = tested on: Pseudomonas aeruginosa BMH10; assay: In vitro antibacterial activity, agar dilution MIC; format: cell-based
Protocol: as §1, §2, §3

[25] = tested on: Staphylococcus aureus A5177; assay: In vitro antibacterial activity, agar dilution MIC; format: cell-based
Protocol: as §1, §2, §3

[26] = tested on: Staphylococcus aureus 1775 Cipro R; assay: In vitro antibacterial activity, agar dilution MIC; format: cell-based; details: Staphylococcus aureus, 1775CIPROR
Protocol: as §1, §2, §3

[27] = tested on: Streptococcus pyogenes 2548 induc; assay: In vitro antibacterial activity, agar dilution MIC; format: cell-based
Protocol: as §1, §2, §3

[28] = tested on: Staphylococcus aureus ATCC 6538P; assay: In vitro antibacterial activity, agar dilution MIC; format: cell-based; details: ATCC6538P
Protocol: as §1, §2, §3

[29] = tested on: Pseudomonas aeruginosa A5007; assay: In vitro antibacterial activity, agar dilution MIC; format: cell-based
Protocol: as §1, §2, §3

[30] = tested on: Staphylococcus aureus NCTC 10649; assay: In vitro antibacterial activity, agar dilution MIC; format: cell-based; details: NCTC10649
Protocol: as §1, §2, §3

[31] = tested on: Enterobacter aerogenes ATCC 13048; assay: In vitro antibacterial activity, agar dilution MIC; format: cell-based; details: Klebsiella aerogenes, ATCC13048
Protocol: as §1, §2, §3

[32] = tested on: Escherichia coli H560; assay: In vitro antibacterial activity, agar dilution MIC; format: cell-based
Protocol: as §1, §2, §3

## CC[C@H]1OC(=O)[C@H](C)[C@@H](O[C@H]2C[C@@](C)(OC)[C@@H](O)[C@H](C)O2)[C@H](C)[C@@H](O[C@@H]2O[C@H](C)C[C@H](N(C)C)[C@H]2O)[C@](C)(O)C[C@@H](C)C(=O)[C@H](C)[C@@H](O)[C@]1(C)O [CONTROL, Erythromycin A, reference compound]
[1]
  MIC: 3.1 µg/mL (≈ 4.22 µM)
[2]
  MIC: 0.39 µg/mL (≈ 0.531 µM)
[3]
  MIC: 0.05 µg/mL (≈ 0.0681 µM)
[4]; Providencia stuartii
  MIC: > 100 µg/mL
[5]
  MIC: 0.05 µg/mL (≈ 0.0681 µM)
[6]
  MIC: 1.56 µg/mL (≈ 2.13 µM)
[7]; Klebsiella pneumoniae
  MIC: 50 µg/mL (≈ 68.1 µM)
[8]; Streptococcus pyogenes, EES61
  MIC: 0.05 µg/mL (≈ 0.0681 µM)
[9]; Escherichia coli
  MIC: 50 µg/mL (≈ 68.1 µM)
[10]; Streptococcus agalactiae, 508
  MIC: 0.05 µg/mL (≈ 0.0681 µM)
[11]; Streptococcus pyogenes, 930CONST
  MIC: > 100 µg/mL
[12]; Pseudomonas aeruginosa, K799/WT
  MIC: > 100 µg/mL
[13]; Staphylococcus aureus
  MIC: 0.2 µg/mL (≈ 0.273 µM)
[14]
  MIC: > 100 µg/mL
[15]; Pseudomonas aeruginosa, 5263
  MIC: > 100 µg/mL
[16]; Enterococcus faecium
  MIC: 0.1 µg/mL (≈ 0.136 µM)
[17]; Staphylococcus epidermidis, 3519
  MIC: 0.2 µg/mL (≈ 0.273 µM)
[18]; Escherichia coli
  MIC: 100 µg/mL (≈ 136 µM)
[19]; Micrococcus luteus, 4698
  MIC: 0.39 µg/mL (≈ 0.531 µM)
[20]; 2961
  MIC: > 100 µg/mL
[21]; Pseudomonas aeruginosa, 2862
  MIC: > 100 µg/mL
[22]; Staphylococcus aureus
  MIC: 0.2 µg/mL (≈ 0.273 µM)
[23]; Escherichia coli
  MIC: 50 µg/mL (≈ 68.1 µM)
[24]; Pseudomonas aeruginosa, BMH10
  MIC: 100 µg/mL (≈ 136 µM)
[25]; Staphylococcus aureus, A5177
  MIC: 1.56 µg/mL (≈ 2.13 µM)
[26]
  MIC: > 100 µg/mL
[27]; Streptococcus pyogenes, 2548INDUC
  MIC: 6.2 µg/mL (≈ 8.45 µM)
[28]; Staphylococcus aureus
  MIC: 0.2 µg/mL (≈ 0.273 µM)
[29]; Pseudomonas aeruginosa, A5007
  MIC: > 100 µg/mL
[30]; Staphylococcus aureus
  MIC: 0.2 µg/mL (≈ 0.273 µM)
[31]
  MIC: 100 µg/mL (≈ 136 µM)
[32]; Escherichia coli, H560
  MIC: 50 µg/mL (≈ 68.1 µM)

## CC[C@H]1OC(=O)[C@H](C)[C@@H](O[C@H]2C[C@](C)(F)[C@@H](OC)[C@H](C)O2)[C@H](C)[C@@H](O[C@@H]2O[C@H](C)C[C@H](N(C)C)[C@H]2O)[C@@]2(C)CC(C)=C(O2)[C@H](C)[C@H]2OC(=O)O[C@@]21C [Example 17, (3"S)-8,9-Anhydro-11-O,12-O-carbonyl-3"-fluoro-3"-desmethoxy-4"-O-methylerythromycin A-6,9-hemiketal]
[1]
  MIC: 50 µg/mL (≈ 67.2 µM)
[2]
  MIC: 3.1 µg/mL (≈ 4.17 µM)
[3]
  MIC: 0.1 µg/mL (≈ 0.134 µM)
[4]; Providencia stuartii CMX 640, BHI agar, 35°-37° C., 20 to 24 hours, read-out: MIC
  MIC: > 100 µg/mL
[5]
  MIC: 0.1 µg/mL (≈ 0.134 µM)
[6]
  MIC: 25 µg/mL (≈ 33.6 µM)
[7]; Klebsiella pneumoniae ATCC 8045, BHI agar, 35°-37° C., 20 to 24 hours, read-out: MIC
  MIC: > 100 µg/mL
[8]; Streptococcus pyogenes EES61, BHI agar, 35°-37° C., 20 to 24 hours, read-out: MIC
  MIC: 0.2 µg/mL (≈ 0.269 µM)
[9]; Escherichia coli KNK 437, BHI agar, 35°-37° C., 20 to 24 hours, read-out: MIC
  MIC: > 100 µg/mL
[10]; Streptococcus agalactiae 508, BHI agar, 35°-37° C., 20 to 24 hours, read-out: MIC
  MIC: 0.2 µg/mL (≈ 0.269 µM)
[11]; Streptococcus pyogenes 930 const, BHI agar, 35°-37° C., 20 to 24 hours, read-out: MIC
  MIC: 12.5 µg/mL (≈ 16.8 µM)
[12]; Pseudomonas aeruginosa K799/WT, BHI agar, 35°-37° C., 20 to 24 hours, read-out: MIC
  MIC: > 100 µg/mL
[13]; Staphylococcus aureus CMX 553, BHI agar, 35°-37° C., 20 to 24 hours, read-out: MIC
  MIC: 1.56 µg/mL (≈ 2.1 µM)
[14]
  MIC: 25 µg/mL (≈ 33.6 µM)
[15]; Pseudomonas aeruginosa 5263, BHI agar, 35°-37° C., 20 to 24 hours, read-out: MIC
  MIC: > 100 µg/mL
[16]; Enterococcus faecium ATCC 8043, BHI agar, 35°-37° C., 20 to 24 hours, read-out: MIC
  MIC: 0.39 µg/mL (≈ 0.524 µM)
[17]; Staphylococcus epidermidis 3519, BHI agar, 35°-37° C., 20 to 24 hours, read-out: MIC
  MIC: 1.56 µg/mL (≈ 2.1 µM)
[18]; Escherichia coli DC-2, BHI agar, 35°-37° C., 20 to 24 hours, read-out: MIC
  MIC: > 100 µg/mL
[19]; Micrococcus luteus 4698, BHI agar, 35°-37° C., 20 to 24 hours, read-out: MIC
  MIC: 1.56 µg/mL (≈ 2.1 µM)
[20]; Pseudomonas cepacia 2961, BHI agar, 35°-37° C., 20 to 24 hours, read-out: MIC
  MIC: > 100 µg/mL
[21]; Pseudomonas aeruginosa 2862, BHI agar, 35°-37° C., 20 to 24 hours, read-out: MIC
  MIC: > 100 µg/mL
[22]; Staphylococcus aureus CMX 642a, BHI agar, 35°-37° C., 20 to 24 hours, read-out: MIC
  MIC: 1.56 µg/mL (≈ 2.1 µM)
[23]; Escherichia coli Juhl, BHI agar, 35°-37° C., 20 to 24 hours, read-out: MIC
  MIC: > 100 µg/mL
[24]; Pseudomonas aeruginosa BMH10, BHI agar, 35°-37° C., 20 to 24 hours, read-out: MIC
  MIC: > 100 µg/mL
[25]; Staphylococcus aureus A5177, BHI agar, 35°-37° C., 20 to 24 hours, read-out: MIC
  MIC: 12.5 µg/mL (≈ 16.8 µM)
[26]
  MIC: 25 µg/mL (≈ 33.6 µM)
[27]; Streptococcus pyogenes 2548 induc, BHI agar, 35°-37° C., 20 to 24 hours, read-out: MIC
  MIC: 1.56 µg/mL (≈ 2.1 µM)
[28]; Staphylococcus aureus ATCC 6538P, BHI agar, 35°-37° C., 20 to 24 hours, read-out: MIC
  MIC: 1.56 µg/mL (≈ 2.1 µM)
[29]; Pseudomonas aeruginosa A5007, BHI agar, 35°-37° C., 20 to 24 hours, read-out: MIC
  MIC: > 100 µg/mL
[30]; Staphylococcus aureus NCTC 10649, BHI agar, 35°-37° C., 20 to 24 hours, read-out: MIC
  MIC: 1.56 µg/mL (≈ 2.1 µM)
[31]; Enterobacter aerogenes ATCC 13048, BHI agar, 35°-37° C., 20 to 24 hours, read-out: MIC
  MIC: > 100 µg/mL
[32]; Escherichia coli H560, BHI agar, 35°-37° C., 20 to 24 hours, read-out: MIC
  MIC: > 100 µg/mL
